Patent US20210278408A1, “METHODS OF TREATMENT OF CANCER WITH SUBSTITUTED PYRROLE AND PYRAZOLE COMPOUNDS AND DIAGNOSIS OF CANCERS SUSCEPTIBLE TO TREATMENT WITH SUBSTITUTED PYRROLE AND PYRAZOLE COMPOUNDS” (Bantam Pharmaceutical, LLC, priority 2018, published 2021)

Test system: 406 cancer cell lines, 73 blood tumor cell lines and 333 solid tumor cell lines
Experiment: OmniScreen drug efficacy on cancer cell lines, fitted area under curve (AUC) of dose-response
Format: cell-based
Parameters: AUCs: unit not given beside the values
Description: Predictive biomarkers for genes indicating responsiveness to a therapeutic compound can be determined using a cell-based screening technique, such as that offered under the name OmniScreen™ (Crown Biosciences).
In one experimental study, predictive biomarkers were determined for Compound A197 efficacy on 406 cancer cell lines, 73 blood tumor cell lines and 333 solid tumor cell lines. Genomic data for the cell lines was downloaded from the Cancer Cell Line Encyclopedia Project (CCLE) website. Driver mutations were predicted on the Cancer Genome Interpreter Database; only driver mutations were used in the mutation related analysis.
Dose-response curves were fitted by the 4-parameter model:
in which top and bottom are the two asymptotes of the sigmoidal curve, EC50 is the relative IC50, and concentration x is in log−10 scale. To accommodate experimental errors, Bottom was allowed to go down to −20%, and Top was allowed to go up to 120%. The fitting error of a model is measured by
σECS0 is the standard error of EC50. In general, such fitting error should be less than 40% for a model to be considered acceptable. The fitted area under curve (AUC) is calculated by
where a=log(3, 10) and b=log(30000,10).

## Cc1nn(-c2nc(-c3ccc(C(F)(F)F)cc3)c(SC(C)C)s2)c(C(=O)O)c1-c1cccc(F)c1 [Compound A197, 4-(3-fluorophenyl)-1-(5-(isopropylthio)-4-(4-(trifluoromethyl)phenyl)thiazol-2-yl)-3-methyl-1H-pyrazole-5-carboxylic acid]
KHOS/NP, Bone
  AUCs: 3.37
KP4, Pancreas
  AUCs: 2.84
  IC50: 0.52 µM
KU812, Blood
  AUCs: 3.91
KYSE-410, Esophagus
  AUCs: 3.51
L-82, Blood
  AUCs: 2.94
LN-229, Brain&Nerves
  AUCs: 3.59
LNCaP clone FGC, Prostate
  AUCs: 2.48
LS123, Colorectum
  AUCs: 4
LS1034, Colorectum
  AUCs: 3.29
MCF7, Breast
  AUCs: 3.76
MDA-MB-415, Breast
  AUCs: 3.49
MDA-MB-436, Breast
  AUCs: 3.33
MDA-MB-453, Breast
  AUCs: 3.26
ME-180, Uterus
  AUCs: 2.65
MES-SA, Uterus
  AUCs: 2.67
MES-SA/DX5, Uterus
  AUCs: 2.17
MFE-296, Uterus
  AUCs: 3.24
MIA PaCa-2, Pancreas
  AUCs: 3.15
MKN1, Stomach/Gastric
  AUCs: 3.21
MKN45, Stomach/Gastric
  AUCs: 3.54
MKN74, Stomach/Gastric
  AUCs: 2.89
MM.1S, Blood
  AUCs: 3.46
MS751, Uterus/Cervix
  AUCs: 3.52
NCI-H69, Lung
  AUCs: 3.75
NCI-H146, Lung
  AUCs: 3.86
NCI-H187, Lung
  AUCs: 2.89
NCI-H209, Lung
  AUCs: 3.47
NCI-H226, Lung
  AUCs: 2.98
NCI-H292, Lung
  AUCs: 3.17
NCI-H441, Lung
  AUCs: 3.85
NCI-H446, Lung
  AUCs: 3.83
NCI-H460, Lung
  AUCs: 3.13
NCI-H522, Lung
  AUCs: 3.12
NCI-H526, Lung
  AUCs: 3.6
NCI-H596, Lung
  AUCs: 3.81
NCI-H661, Lung
  AUCs: 3.43
NCI-H727, Lung
  AUCs: 3.53
NCI-H747, Large intestine/Colorectum
  AUCs: 3.19
NCI-H929, Blood
  AUCs: 3.32
NCI-H1048, Lung
  AUCs: 3.35
NCI-H1563, Lung
  AUCs: 3.71
NCI-H1581, Lung
  AUCs: 3.1
NCI-H1648, Lung
  AUCs: 3.56
NCI-H1650, Lung
  AUCs: 4.13
NCI-H1666, Lung
  AUCs: 3.51
NCI-H1688, Lung
  AUCs: 3.57
NCI-H1781, Lung
  AUCs: 3.34
NCI-H1838, Lung
  AUCs: 3.62
NCI-H1915, Lung
  AUCs: 3.33
NCI-H1975, Lung
  AUCs: 3.6
NCI-H2009, Lung
  AUCs: 3.22
NCI-H2052, Lung
  AUCs: 3.92
NCI-H2087, Lung
  AUCs: 3.19
NCI-H2452, Lung
  AUCs: 3.72
NCI-N87, Stomach/Gastric
  AUCs: 3.09
NUGC-3, Stomach/Gastric
  AUCs: 3.64
NUGC-4, Stomach/Gastric
  AUCs: 3.11
OCI-AML3, Blood/Leukemia
  AUCs: 3.62
OCUM1, OCUM-1, Stomach/Gastric
  IC50: 68.3 µM
OCUM-1, Stomach/Gastric
  AUCs: 3.57
OCUM-2D, Stomach/Gastric
  AUCs: 3.12
  IC50: 1.14 µM
OCUM-2M, Stomach/Gastric
  AUCs: 2.88
  IC50: 0.848 µM
OE19, Esophagus/gastric cardia
  AUCs: 3.44
OSC19, OSC-19, Tongue
  IC50: 34.5 µM
OSC-19, Tongue
  AUCs: 3.85
OVCAR-3, Ovary
  AUCs: 3.29
OVCAR-8, Ovary
  AUCs: 3.05
PANC-1, Pancreas
  AUCs: 3.13
PC-3, Prostate
  AUCs: 3.82
PL45, PL45, Pancreas
  IC50: 0.993 µM
PL45, Pancreas
  AUCs: 3.37
RL95-2, Uterus
  AUCs: 2.63
RPMI-2650, Nose
  AUCs: 3.04
SCC-4, Tongue
  AUCs: 3.69
SCC-9, Tongue
  AUCs: 3.31
SCC-15, Tongue
  AUCs: 3.56
SCC-25, Tongue
  AUCs: 3.29
SCH, Stomach/Gastric
  AUCs: 3.48
SF268, Brain&Nerves
  AUCs: 3.24
SF-126, Brain&Nerves
  AUCs: 3.39
SK-HEP-1, Liver
  AUCs: 3.05
SK-MEL-5, Skin
  AUCs: 4.12
SK-MEL-28, Skin
  AUCs: 4.18
SK-OV-3, Ovary
  AUCs: 3.53
SK-UT-1, Uterus
  AUCs: 3.67
SNU-1, Stomach/Gastric
  AUCs: 3.25
SNU-5, Stomach/Gastric
  AUCs: 3.11
SNU-81, Colorectum
  AUCs: 3.54
SNU-216, SNU-216, Stomach/Gastric
  IC50: 124 µM
SNU-216, Stomach/Gastric
  AUCs: 3.7
SNU-354, Liver
  AUCs: 3.39
SNU-423, Liver
  AUCs: 3.2
SNU-484, SNU-484, Stomach/Gastric
  IC50: 74.8 µM
SNU-484, Stomach/Gastric
  AUCs: 3.64
SNU-601, SNU-601, Stomach/Gastric
  IC50: 0.331 µM
SNU-601, Stomach/Gastric
  AUCs: 2.89
SNU-620, Stomach/Gastric
  AUCs: 3.75
SNU-638, Stomach/Gastric
  AUCs: 3.32
SNU-668, Stomach/Gastric
  AUCs: 3.48
SNU-719, Stomach/Gastric
  AUCs: 3.58
  IC50: 1320 µM
SNU-C5, Large intestine/Colorectum
  AUCs: 3.5
SW48, Colorectum
  AUCs: 3.74
SW480, Colorectum
  AUCs: 3.62
SW579, SW579, Thyroid
  IC50: 50.5 µM
SW579, Thyroid
  AUCs: 3.73
SW626, Ovary
  AUCs: 3.89
SW684, Soft tissue
  AUCs: 3.77
SW756, Ovary
  AUCs: 3.75
SW948, Colorectum
  AUCs: 3.37
SW982, Soft tissue
  AUCs: 3.99
SW1116, Colorectum
  AUCs: 3.82
SW1271, Lung
  AUCs: 3.9
SW1271, SW1271, Lung
  IC50: 498 µM
SW1990, Pancreas
  AUCs: 3.12
T47D, Breast
  AUCs: 3.33
T84, Colorectum
  AUCs: 3.57
TE-1, Esophagus
  AUCs: 3.23
TF-1, Blood
  AUCs: 3.24
TJ905, Brain&Nerves
  AUCs: 3.68
TT, Thyroid
  AUCs: 3.19
  IC50: 2.17 µM
U266B1, Blood
  AUCs: 3.41
U-2 OS, Bone
  AUCs: 3.44
UACC-812, Breast
  AUCs: 3.52
UO.31, Kidney
  AUCs: 3.58
WM-266-4, Skin
  AUCs: 3.87
Y-79, Eye
  AUCs: 3.72
YCC-1, Stomach/Gastric
  AUCs: 3.54
YCC-2, Stomach/Gastric
  AUCs: 3.66
YCC-6, Stomach/Gastric
  AUCs: 2.95
  IC50: 6.32 µM
YCC-10, Stomach/Gastric
  AUCs: 3.64
  IC50: 412 µM
YCC-11, Stomach/Gastric
  AUCs: 3.34
ZR-75-30, Breast
  AUCs: 3.44
